ChEMBL document CHEMBL1201862, “PubChem BioAssay data set” (2004)
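Compound exposure: 48 hours, 5 concentrations, 96-well plates. The concentration for 50% growth inhibition is given as GI50.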 The source made the active and inactive calls. Rule as the data show it: active = GI50 up to about 1.1 µM and inactive = higher. Peptide text beside a SMILES is read from it. * marks the point of attachment. X27 = Clc1c(Cl)c(Cl)c(O*)c(Cl)c1Cl; Boc = CC(C)(C)OC(=O)*; OBn = c1ccc(CO*)cc1; Bn = c1ccc(C*)cc1

What was measured:
Experiment in all cases: NCI-60 cell line screen, 48 h
[1] = test system: MDA-N
[2] = test system: SF-268
[3] = test system: OVCAR-5
[4] = test system: CAKI-1
[5] = test system: ACHN
[6] = test system: TK-10
[7] = test system: A549
[8] = test system: Malme-3M
[9] = test system: NCI-H226
[10] = test system: M14
[11] = test system: NCI-H522
[12] = test system: RXF 393
[13] = test system: UACC-257
[14] = test system: HT-29
[15] = test system: OVCAR-3
[16] = test system: MOLT-4
[17] = test system: OVCAR-4
[18] = test system: SN12C
[19] = test system: A498
[20] = test system: SK-MEL-2

Measured: GI50

O=C1NC2ON=C(c3ccccc3)C2C2ON=C(c3ccccc3)N12 (stereo unspecified)
inactive: [1] 39.6 µM | [2] > 100 µM | [3] > 100 µM | [4] > 100 µM | [5] > 100 µM | [6] > 100 µM | [7] > 100 µM | [8] > 100 µM | [9] > 100 µM | [10] > 100 µM | [11] 40.5 µM | [12] > 100 µM | [13] > 100 µM | [14] 41.2 µM | [15] > 100 µM

[O-][S+]1C(=c2ccc(=C3Sc4ccccc4S3)cc2)Sc2ccccc21 (stereo unspecified)
inactive: [2] 12.4 µM | [3] 18.3 µM | [4] > 52.7 µM | [5] 19.5 µM | [6] > 100 µM | [7] 17.6 µM | [8] > 100 µM | [9] 19.2 µM | [10] 15.1 µM | [11] > 100 µM | [16] > 71.9 µM | [17] 46.8 µM | [18] 15.6 µM | [12] 24.2 µM | [13] > 92.5 µM | [19] 15.8 µM | [14] 22.6 µM | [15] > 100 µM | [20] 21.3 µM

O=C1CC(O)c2c1csc2Br (stereo unspecified)
inactive: [1] 22.5 µM | [2] 27.4 µM | [3] > 100 µM | [4] 37.8 µM | [5] 21.9 µM | [6] 8.97 µM | [7] 28.4 µM | [8] 30.8 µM | [10] 18.2 µM | [11] 15.5 µM | [16] 20.3 µM | [17] 31.6 µM | [18] 20.7 µM | [12] 17.3 µM | [13] 10.7 µM | [14] 33.3 µM | [15] 19.3 µM | [20] 34.2 µM

COc1ccc(C2=Nc3ccccc3SC(C)C2)cc1 (stereo unspecified)
inactive: [2] > 100 µM | [3] > 100 µM | [4] > 100 µM | [5] > 100 µM | [6] > 100 µM | [7] > 100 µM | [8] > 100 µM | [9] > 100 µM | [10] > 100 µM | [11] > 100 µM | [16] 49.8 µM | [17] > 100 µM | [18] > 100 µM | [12] > 100 µM | [13] > 100 µM | [19] > 100 µM | [14] 62.1 µM | [15] > 100 µM | [20] > 100 µM

CCN(CC)CCNC(=O)c1cc2cc(NC(=O)c3cc4cc(NC(=O)c5cc6cc([N+](=O)[O-])ccc6[nH]5)ccc4[nH]3)ccc2[nH]1
inactive: [2] > 100 µM | [3] > 100 µM | [4] > 100 µM | [5] > 100 µM | [6] > 100 µM | [7] > 100 µM | [8] > 100 µM | [9] > 100 µM | [10] > 100 µM | [11] > 100 µM | [17] > 100 µM | [18] > 100 µM | [12] > 100 µM | [13] > 100 µM | [19] > 100 µM | [14] > 100 µM | [15] > 100 µM | [20] > 100 µM
active: [16] < 0.01 µM

O=[N+]([O-])c1ccc(C2N3CCCCC3[C@H]3CCCCN23)cc1 (stereo partly specified)
inactive: [2] > 100 µM | [3] > 100 µM | [4] > 100 µM | [5] > 100 µM | [6] > 100 µM | [7] > 100 µM | [8] > 100 µM | [9] > 100 µM | [10] > 100 µM | [11] > 100 µM | [16] > 100 µM | [17] > 100 µM | [18] > 100 µM | [12] > 100 µM | [13] > 100 µM | [19] > 100 µM | [14] > 100 µM | [15] > 100 µM | [20] > 100 µM

Cc1cc(NS(=O)(=O)c2ccc(NC(NC(=O)C(C(F)(F)F)C(F)(F)F)(C(F)(F)F)C(F)(F)F)cc2)no1
inactive: [1] > 100 µM | [2] > 100 µM | [3] > 100 µM | [4] > 100 µM | [5] > 100 µM | [6] > 100 µM | [7] > 100 µM | [8] > 100 µM | [9] > 100 µM | [10] 58.7 µM | [16] > 100 µM | [17] > 100 µM | [18] > 100 µM | [12] > 100 µM | [13] > 100 µM | [14] > 100 µM | [15] > 100 µM | [20] > 100 µM

CC(C)CC(NC(=O)C(CCC(=O)OCc1ccccc1)NC(=O)OC(C)(C)C)C(=O)NC(COCc1ccccc1)C(=O)NC(Cc1ccccc1)C(=O)Oc1c(Cl)c(Cl)c(Cl)c(Cl)c1Cl (stereo unspecified) (Boc-E(OBn)LS(Bn)F-X27; configuration not given here)
inactive: [1] 20 µM | [2] 35.3 µM | [3] 25.3 µM | [4] 21.2 µM | [5] 23.4 µM | [6] 30.3 µM | [7] 28.6 µM | [8] 33.1 µM | [10] 28 µM | [11] 21.9 µM | [16] 22.6 µM | [17] 35.6 µM | [18] 29.1 µM | [12] 21.4 µM | [13] 28.2 µM | [14] 35.6 µM | [20] 34 µM

Cc1nc2cccc(F)c2c(=O)n1-c1nnc(C(F)(F)F)s1
inactive: [1] > 10 µM | [2] > 10 µM | [3] > 10 µM | [4] > 10 µM | [5] > 10 µM | [6] > 10 µM | [7] > 10 µM | [9] > 10 µM | [10] > 10 µM | [11] > 10 µM | [16] > 10 µM | [17] > 10 µM | [18] > 10 µM | [12] > 10 µM | [13] > 10 µM | [14] > 10 µM | [15] > 10 µM | [20] > 10 µM

O=C(N/N=C\c1cccs1)c1ccncc1
inactive: [2] > 100 µM | [3] > 100 µM | [4] > 100 µM | [5] > 100 µM | [6] > 100 µM | [7] > 100 µM | [8] > 100 µM | [9] > 100 µM | [10] > 100 µM | [11] > 100 µM | [16] > 100 µM | [17] > 100 µM | [18] > 100 µM | [12] > 100 µM | [13] > 100 µM | [19] > 100 µM | [14] > 100 µM | [15] > 100 µM | [20] > 100 µM

COc1ccccc1C1C(C(=O)Nc2ccccc2)=C(C)NC(C)=C1C(=O)Nc1ccccc1
inactive: [2] > 100 µM | [3] 91 µM | [4] > 100 µM | [5] 39.5 µM | [6] 89.5 µM | [8] > 100 µM | [9] 53 µM | [10] 45 µM | [11] 48.1 µM | [16] 7.45 µM | [17] 54.8 µM | [18] > 100 µM | [12] 80.2 µM | [13] 75.9 µM | [19] 31.7 µM | [14] 83.4 µM | [15] 84.1 µM | [20] 32 µM

O=C(NCc1ccccc1)c1cc2ccc(O)c(O)c2cn1
inactive: [2] 15.1 µM | [3] 26 µM | [4] 17.2 µM | [5] 15.5 µM | [6] > 100 µM | [7] 38.5 µM | [8] 16.7 µM | [9] 40 µM | [10] 5.21 µM | [11] 16.6 µM | [17] 16.6 µM | [18] 17.6 µM | [12] 16.6 µM | [13] 15.6 µM | [19] > 100 µM | [14] 44.1 µM | [15] 18.2 µM | [20] 12.4 µM

COc1cc(N(Cc2ccc3oc(=O)c(-c4ccccc4)nc3c2)Cc2ccc3oc(=O)c(-c4ccccc4)nc3c2)cc(OC)c1OC
inactive: [1] > 10 µM | [2] > 10 µM | [3] > 10 µM | [4] > 10 µM | [5] > 10 µM | [6] > 10 µM | [7] > 10 µM | [9] > 10 µM | [10] > 10 µM | [11] > 10 µM | [16] > 10 µM | [17] > 10 µM | [18] > 10 µM | [12] > 10 µM | [13] > 10 µM | [14] > 10 µM | [15] > 10 µM | [20] > 10 µM

Nc1nc(-c2ccccc2/N=N/N2CCCC2)nc2ccccc12
inactive: [2] 6.7 µM | [3] 1.86 µM | [4] 4.14 µM | [5] 2.52 µM | [6] 3.63 µM | [7] 2.62 µM | [8] 3.28 µM | [9] 2.22 µM | [10] 3.08 µM | [11] 4.28 µM | [16] 1.16 µM | [17] 5.96 µM | [18] 1.59 µM | [12] 5.73 µM | [13] 3.51 µM | [19] 7.76 µM | [14] 2.38 µM | [15] 1.85 µM | [20] 13.2 µM

O=c1[nH]c(=O)n(C2CC(O)C(COP(=O)(OCC(Cl)(Cl)Cl)OCC(Cl)(Cl)Cl)O2)cc1F (stereo unspecified)
inactive: [1] > 26 µM | [2] 1.24 µM | [3] > 94.2 µM | [6] > 100 µM | [8] 6.05 µM | [9] 95.1 µM | [10] 2 µM | [17] > 76 µM | [18] 26.1 µM | [13] > 100 µM | [14] 9.23 µM | [15] 8 µM | [20] > 100 µM
active: [4] 0.3 µM | [5] 0.298 µM | [7] 0.212 µM | [16] 1.1 µM
